Experimental data taken from US9737502B2, “Calebin A for hepatic steatosis” (SAMI LABS LIMITED, priority 2011, dated 2017).

Assays:
leptin [1] = assay: Estimation of leptin in adipocyte supernatant by ELISA; format: cell-based; details: human adipocytes
Experimental: (§1) 3T3-L1 cells approximately 60×10^4 cells are seeded for 48-72 hrs to get 70-80% confluence. After 48 hrs 200 μl of AIM (Adipogenesis induction medium) freshly prepared is added. 72 hrs later 200 μl APM (Adipogenesis progression medium) with the test compounds in different concentrations is added to the wells. The cells are incubated for 48 hrs in a humidified atmosphere (37° C.) of 5% CO2 and 95% air. The supernatant is collected and stored for the estimation of leptin, adiponectin, IL-6 and TNF-α by ELISA. Cells are fixed by adding 100 μl of 10% formalin and ORO staining is done. OD is read at 492 nm in microplate reader. The results are expressed as IC50 values using Graphpad prism software.
(§2) The percentage of inhibition of adipogenesis is calculated as follows, % inhibition=C−T/[…] Where C-absorbance of Oil red 0 in differentiating/undifferentiated cells T-absorbance of Oil Red-O in sample treated differentiating/undifferentiated cells. The estimation of leptin, adiponectin, IL-6 and TNF-α is done according to user's manual from R&D Systems.

adiponectin = assay: Estimation of adiponectin in adipocyte supernatant by ELISA; format: cell-based; details: human adipocytes
Experimental: as §1, §2

TNF-α [2] = assay: Intracellular TNF-α in LPS-stimulated murine neutrophils (flow cytometry); format: cell-based; details: for Expression of TNF-α Mean ± S.E: LPS Control 2.62 ± 0.01
Experimental: The present inventors also adduce extra evidence to support the ability of Calebin A to suppress intracellular TNF and extracellular IL-1β in murine neutrophil systems (Table II, Table III). Neutrophils are isolated by histopaque gradient method tested for their ability to produce in vitro TNF-α following stimulation with Lipopolysaccharide (LPS). The cells were incubated with phycoerythrin (PE)-labeled anti-mouse TNF-α in the dark, and after being washed with sterile PBS, samples were resuspended in PBS (pH 7.4) and acquired directly on the flow cytometer (BDLSR; Becton Dickinson). A fluorescence trigger was set on the PE […] parameter of the gated neutrophil populations (10,000 events). Rolipram at 100 μg/ml was used as standard inhibitor of TNF-α in this study. Fluorescence compensation, data analysis, and data presentation were performed using Cell Quest Pro software (Becton Dickinson).

TNF-α [3] = assay: Serum TNF-α in LPS-injected mice after 6 days oral treatment (ELISA); format: in vivo, Swiss albino mice; details: graded doses, then LPS 1 mg/kg i.v., serum 90 min after LPS
Experimental: (§3) The present inventors also adduce study data on the ability of Calebin A to reduce expression of Extracellular TNF-α, IL-1 beta [FIG. 6] and IL-6 [FIG. 7] in serum from treated mice (in-vivo models). Swiss albino male mice aged 6-8 weeks were maintained at 22±2° C. under 12/12 h light dark cycle. Mice received oral treatment of test drugs at graded doses (w/v) for 6 days, followed by intravenous injection of 1 mg/kg of LPS according to the method described by Brieva A, Guerrero A, Alonso-Lebrero J L and Pivel J P. 2001. Immunoferon, a glycoconjugate of natural origin, inhibits LPS-induced TNF-α production and inflammatory responses. International Immunopharmacology 1, 1979-1987. Six mice were employed in each group and experiments were performed in triplicates. TNF-α, IL-1 beta and IL-6 production was evaluated by a commercial ELISA kits (R&D Systems) in serum from treated mice, 90 min after LPS injection. Rolipram at 30 mg/kg was used as standard drug.

IL-6 = assay: Serum IL-6 in LPS-injected mice after 6 days oral treatment (ELISA); format: in vivo, Swiss albino mice; details: graded doses, then LPS 1 mg/kg i.v., serum 90 min after LPS
Experimental: as §3

leptin [4] = assay: Study 2: serum leptin by ELISA in obese mice; format: in vivo, C57 mice; details: Study 2, end of study period
Experimental: Further, on completion of the study period blood samples were collected from all the animals in […] for estimation of systemic expression of leptin and adiponectin. Blood samples were collected humanely from retro-orbital plexus puncture method under mild ether anesthesia with the help of a fine capillary tube. The blood samples collected in tubes without anticoagulant were centrifuged at 3000 rpm for 10 minutes to obtain serum which was subjected to ELISA technique for the estimation of leptin and adiponectin. The import of leptin and adiponectin expression as biomarkers in obesity has been discussed in aforesaid paragraphs. […] Low systemic adiponectin levels have been cited as predictive factors in the progression of disease states like Type II Diabetes mellitus (Chamukuttan Snehalatha et al, “Plasma Adiponectin Is an Independent Predictor of Type 2 Diabetes in Asian Indians”, Diabetes Care December 2003 vol. 26 no. 12 3226-3229).

[5] = tested on: HFD induced hepatic steatosis; assay: Liver histopathology and hepatic triglyceride in HFD-fed mice; format: in vivo, C57BL/6J mice; details: Calebin A 0.25% and 1% in HFD, dose dependant
Experimental: A portion of the livers in different groups were dissected and fixed in 10% buffered formalin for at least 24 hours, then dehydrated with a sequence of ethanol solutions and processed for embedding in paraffin. Sections of 5-6 μm in thickness were cut, deparaffinized, rehydrated, stained with haematoxylin & eosin (H&E) and subjected to pbotomicroscopic assessment. Liver histopathology was evaluated according to the NAFLD system outlined in Kleiner, D. E., Brunt, E. M., Van, N. M., Behling, C. et al., Design and validation of a histological scoring system for nonalcoholic fatty liver disease. Hepatology 2005, 41, 1313-1321. The score of hepatocellular ballooning was graded 0-2 based on the number of balloon cell per field at ×200 magnification (grading: 0=no balloon cell; 1=few balloon cells; 2=prominent balloon cells) in H&E stained sections. The number of infiltrating immune cells was counted at 200× magnification in five different areas. In the HFD group significant inflammatory degeneration, hepatocellular ballooning degeneration and triglyceride accumulation were seen. Quantitative analysis indicated elevated hepatic triglyceride levels as compared to the ND group. Administration of Calebin A at concentrations of 0.25% and 1% attenuated HFD induced triglyceride, hepatocellular ballooning degeneration and inflammatory infiltration in a dose dependant manner. Accordingly, in another most preferred embodiment, the present invention relates to a method of treating high fat diet (HFD) induced hepatic steatosis in mammals, said method comprising step of bringing into contact HFD affected hepatic cells marked by inflammatory infiltration, hepatocellular ballooning degeneration and high triglyceride levels with Calebin A derived from orally administering to said mammals effective concentrations of Calebin A to bring about the effect of attenuation of hepatic steatosis in a dose dependant manner. Alternatively, in another most preferred embodiment, the present invention also relates to Calebin A for treating high fat diet (HFD) induced hepatic steatosis in mammals.

## COc1cc(/C=C/C(=O)COC(=O)/C=C/c2ccc(O)c(OC)c2)ccc1O [Calebin A]
Leptin [1]; 0.5 μg/ml
  percentage inhibition of leptin production: 34.92%
Leptin [1]; 1.0 μg/ml
  percentage inhibition of leptin production: 41.04%
Leptin [1]; 2.0 μg/ml
  percentage inhibition of leptin production: 39.48%
adiponectin; 0.5 μg/ml
  percentage enhancement of adiponectin expression: 27.12%
adiponectin; 1.0 μg/ml
  percentage enhancement of adiponectin expression: 34.06%
adiponectin; 2.0 μg/ml
  percentage enhancement of adiponectin expression: 32.8%
TNF-α [2]; 0.5 μg/ml
  % Activity (suppression of TNF-α expression): 28.62%↓
  Expression of TNF-α Mean ± S.E: 1.87 ± 0.04
TNF-α [2]; 1.0 μg/ml
  % Activity (suppression of TNF-α expression): 35.11%↓
  Expression of TNF-α Mean ± S.E: 1.70 ± 0.02
TNF-α [2]; 2.0 μg/ml
  % Activity (suppression of TNF-α expression): 39.31%↓
  Expression of TNF-α Mean ± S.E: 1.59 ± 0.05
TNF-α [3]
  expression of TNF-α in serum: effective in reducing
IL-6
  expression of IL-6 in serum: effective in reducing
Leptin [4]
  inhibition of leptin expression in the serum of obese animals: insignificant effect
[5]
  HFD induced hepatic triglyceride: attenuated
[5]; H&E
  inflammatory infiltration in liver: attenuated
[5]; H&E, NAFLD scoring
  hepatocellular ballooning degeneration: attenuated
